In US20220288137A1, “Bifidobacterium Longum Subsp. Infantis CCFM687 and Fermented Food and Application Thereof” (Jiangnan University, priority 2018, published 2022):

Tested on: depressed mice (chronic unpredictable stress depression mouse model)
Test: Butyric acid content in the caecum of depressed mice (GC-MS)
Format: in vivo, C57BL/6J mice
Details: 6 weeks intervention (CCFM687 10^9 cfu or fluoxetine 10 mg/kg), GC-MS of cecal content (FIG. 3)
Method: 32 6-week-old male C57BL/6J mice were selected. After one week of adaptation to the environment, the mice were randomly divided into four groups according to body weight: a control group, a model group, a fluoxetine intervention group, and a CCFM687 intervention group, each containing 8 mice.
Chronic unpredictable stress depression mouse model: 1-2 kinds of stimuli were randomly performed every day, and the performance time of stimuli every day was determined randomly to avoid the circadian rhythm. Each method was used for not more than three times, and the stimuli were performed for five weeks. The stimuli include: (1) fasting for 24 h; (2) water deprivation+empty bottle stimulus for 24 h; (3) tail pinching for 3 min; (4) wet padding for 24 h; (5) immobilization for 1-2 h; (6) 45° tilted cage for 24 h; (7) continuous lighting for 24 h; (8) no padding for 24 h; (9) forced swim for 15 min; and (10) separation for 24 h. […]
The mice in Example 2 were euthanized at the sixth weekend, and the content of the cecum of the mice was collected. […] 500 μL of supernatant was taken into a gas phase vial, and the contents of short-chain fatty acids (acetic acid, propionic acid, isobutyric acid, butyric acid and isovaleric acid) were measured by GC-MS. […] The analysis adopted a full scan mode, and the concentration of each short-chain fatty acid (μmol/g) was calculated by an external standard method. […]

SMILES: CNCCC(Oc1ccc(C(F)(F)F)cc1)c1ccccc1 (stereo not shown) [fluoxetine]
- butyric acid content in the caecum / intestine: has no regulating effect on the butyric acid content
